Active and inactive are the calls of the source.
What was measured:
Cytochrome P450 1A2 = target: T1, Cytochrome P450 1A2 (Homo sapiens, UniProt P05177);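 further: PubChem cytochrome P450 panel assay, CYP1A2 panel member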
T1 sequence (P05177 whole entry): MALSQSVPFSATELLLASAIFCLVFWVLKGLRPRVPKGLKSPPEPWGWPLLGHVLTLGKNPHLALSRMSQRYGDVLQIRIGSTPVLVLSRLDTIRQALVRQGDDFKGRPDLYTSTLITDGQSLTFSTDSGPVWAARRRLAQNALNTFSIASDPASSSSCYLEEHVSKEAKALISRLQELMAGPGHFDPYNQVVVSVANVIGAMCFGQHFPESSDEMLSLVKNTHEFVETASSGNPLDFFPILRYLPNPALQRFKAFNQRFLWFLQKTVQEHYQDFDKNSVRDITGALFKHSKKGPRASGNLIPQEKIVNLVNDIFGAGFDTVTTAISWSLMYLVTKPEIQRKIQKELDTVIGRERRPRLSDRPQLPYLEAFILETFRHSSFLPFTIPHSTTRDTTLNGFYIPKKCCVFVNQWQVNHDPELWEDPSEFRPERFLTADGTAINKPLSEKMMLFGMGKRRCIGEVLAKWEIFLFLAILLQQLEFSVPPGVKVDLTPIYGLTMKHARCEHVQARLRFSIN

Cytochrome P450 3A4 = Cytochrome P450 3A4 (Homo sapiens, UniProt P08684);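 further: CYP3A4 tested as one member of a cytochrome P450 panel screen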
Cytochrome P450 2D6 = Cytochrome P450 2D6 (Homo sapiens, UniProt P10635);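 further: CYP2D6 member of a cytochrome P450 panel assay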
[1] = viability loss of HMLE_sh_eGFP cells – cell-based, luminescence, counter-screen for HMLE_sh_ECad selective toxicity project, dose response (AID 463074); assay type: functional, Homo sapiens;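 further: HMLE human mammary epithelial cells expressing control shRNA against eGFP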
[2] = Luminescence Cell-Based Dose Retest to Confirm Inhibitors of Cancer Stem Cells. [Related pubchem assays (depositor defined):AID2717, AID2721]; assay type: functional; settings: Homo sapiens
HEK293 [3] = assay: NOD2 signaling inhibitors in MDP-stimulated cells, cell-based, uHTS, luminescence (AID 2001); assay type: functional; settings: Homo sapiens
HEK293 [4] = assay: cells; assay type: functional, cell-based; settings: Homo sapiens
[5] = Luminescence Cell-Based Dose Confirmation HTS to Identify Activators of 5'UTR Stem-Loop Driven Alpha-Synuclein mRNA Translation in H4 Neuroglioblastoma Cells. [Related pubchem assays: 1829 (Project Summary), 1814 (Primary HTS)]; assay type: functional
HEK293 [6] = assay: cells; assay type: functional, cell-based; settings: Homo sapiens; remark: listed apart in the source
[7] = Luminescence Cell-Based Dose Response HTS to Identify Activators of Luciferase Translation or Activity in H4 […] Cells. [Related pubchem assays: 1829 (Project Summary), 1814 (Primary HTS)]; assay type: functional
HEK293 [8] = assay: inhibition of NOD1-driven NF-kB reporter – cell-based, luminescence, uHTS, primary screen (AID 1578); assay type: functional; settings: Homo sapiens
H4 = assay: Luminescence Cell-Based Dose Response HTS to Identify Activators of 5'UTR Stem-Loop Driven Prion Protein mRNA Translation in H4 Neuroglioblastoma Cells. [Related pubchem assays: 1829 (Project Summary), 1814 (Primary HTS)]; assay type: functional; settings: Homo sapiens
[9] = target: Peroxisome proliferator-activated receptor gamma/Nuclear receptor coactivator 1 (Homo sapiens, UniProt P37231); assay: (§1) TR-FRET dose response biochemical High Throughput Screening assay for agonists of the steroid receptor coactivator 1 (SRC-1) recruitment by the peroxisome proliferator-activated receptor gamma (PPAR gamma): non-selective agonists. [Related pubchem assays (depositor defined):AID1300, AID1808, AID504735, AID631]; assay type: protein assay
[10] = target: Peroxisome proliferator-activated receptor gamma/Nuclear receptor coactivator 3 (Homo sapiens, UniProt P37231); assay: as §1, with “3 (SRC-3)” for “1 (SRC-1)”, “assays: 1301 (Confirmation screen.), 1048 (Primary screen.)]” for “assays (depositor defined):AID1300, AID1808, AID504735, AID631]”; assay type: functional
[11] = target: Peroxisome proliferator-activated receptor gamma/Nuclear receptor coactivator 2 (Homo sapiens, UniProt P37231); assay: TR-FRET dose response biochemical High Throughput Screening assay for agonists of the steroid receptor coactivator 2 (SRC-2) recruitment by the peroxisome proliferator-activated receptor gamma (PPAR gamma): non-selective agonists. [Related pubchem assays: 1297, 1032 ]; assay type: functional
[12] = luciferase reporter signal suppression in cells – H4 neuroglioma cells, luminescence, dose response (AID 1990); assay type: functional, cell-based
[13] = Luminescence Cell-Based Dose Response HTS to Identify Inhibitors of 5'UTR Stem-Loop Driven Prion Protein mRNA Translation in H4 Neuroglioblastoma Cells. [Related pubchem assays: 1827 (Project Summary), 1813 (Primary HTS)]; assay type: functional
BJ [14] = assay: cells; assay type: functional, cell-based; settings: Homo sapiens
[15] = HEK-293T viability loss after treatment – luminescence, T-cell screen hits, cytotoxicity control for TCR NF-kB inhibitor project, dose response (AID 489026); assay type: functional, cell-based;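 further: cells exposed to compound about 14 hours before the viability readout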
BJ [16] = assay: BJ-TERT fibroblast viability loss – cell-based, RAS-independent, luminescence, dose response (AID 1933); assay type: functional; settings: Homo sapiens
[17] = alpha-synuclein stem-loop luciferase translation blockers – H4 neuroglioma cells, luminescence, confirmation (AID 1988); assay type: functional, cell-based
[18] = DRD fibroblast viability loss – cell-based, non-viral oncogenic, luminescence, dose response (AID 1934); assay type: functional; settings: Homo sapiens
BJ [19] = assay: BJ-TERT-LT-ST fibroblast viability loss – cell-based, RAS-independent, luminescence, dose response (AID 1935); assay type: functional; settings: Homo sapiens;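 further: BJ fibroblasts immortalized with TERT plus LT and ST oncogenes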

Sequence of Cytochrome P450 2D6 (P10635 whole entry): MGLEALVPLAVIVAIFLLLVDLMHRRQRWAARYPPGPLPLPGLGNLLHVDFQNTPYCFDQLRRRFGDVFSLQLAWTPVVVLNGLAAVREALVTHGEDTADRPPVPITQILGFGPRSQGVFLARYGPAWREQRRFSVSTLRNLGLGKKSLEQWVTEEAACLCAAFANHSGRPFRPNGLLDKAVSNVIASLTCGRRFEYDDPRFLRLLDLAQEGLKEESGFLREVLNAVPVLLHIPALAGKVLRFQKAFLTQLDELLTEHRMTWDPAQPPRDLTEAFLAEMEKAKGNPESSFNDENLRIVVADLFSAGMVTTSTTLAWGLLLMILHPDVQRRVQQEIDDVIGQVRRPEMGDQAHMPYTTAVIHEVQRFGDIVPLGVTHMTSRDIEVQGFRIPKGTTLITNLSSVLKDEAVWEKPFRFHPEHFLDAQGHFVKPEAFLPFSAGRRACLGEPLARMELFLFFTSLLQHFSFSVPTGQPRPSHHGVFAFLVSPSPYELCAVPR
Sequence of Peroxisome proliferator-activated receptor gamma/Nuclear receptor coactivator 1 (P37231 whole entry): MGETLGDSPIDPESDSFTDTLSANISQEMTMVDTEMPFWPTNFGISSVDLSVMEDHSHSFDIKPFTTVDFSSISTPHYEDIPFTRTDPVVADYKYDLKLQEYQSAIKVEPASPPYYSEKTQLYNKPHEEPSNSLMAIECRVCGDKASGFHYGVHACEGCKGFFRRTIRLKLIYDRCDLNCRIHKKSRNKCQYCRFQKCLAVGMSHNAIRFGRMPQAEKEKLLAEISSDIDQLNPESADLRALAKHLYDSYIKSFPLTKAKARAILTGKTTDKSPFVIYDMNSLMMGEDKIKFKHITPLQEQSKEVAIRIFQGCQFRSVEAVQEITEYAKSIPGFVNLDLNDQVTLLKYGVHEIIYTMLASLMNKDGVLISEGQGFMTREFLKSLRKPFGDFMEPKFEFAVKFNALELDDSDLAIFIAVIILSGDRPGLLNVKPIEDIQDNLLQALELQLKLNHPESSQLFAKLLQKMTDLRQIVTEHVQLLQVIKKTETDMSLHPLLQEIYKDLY
Sequence of Peroxisome proliferator-activated receptor gamma/Nuclear receptor coactivator 1 (Q15788 whole entry, further chain): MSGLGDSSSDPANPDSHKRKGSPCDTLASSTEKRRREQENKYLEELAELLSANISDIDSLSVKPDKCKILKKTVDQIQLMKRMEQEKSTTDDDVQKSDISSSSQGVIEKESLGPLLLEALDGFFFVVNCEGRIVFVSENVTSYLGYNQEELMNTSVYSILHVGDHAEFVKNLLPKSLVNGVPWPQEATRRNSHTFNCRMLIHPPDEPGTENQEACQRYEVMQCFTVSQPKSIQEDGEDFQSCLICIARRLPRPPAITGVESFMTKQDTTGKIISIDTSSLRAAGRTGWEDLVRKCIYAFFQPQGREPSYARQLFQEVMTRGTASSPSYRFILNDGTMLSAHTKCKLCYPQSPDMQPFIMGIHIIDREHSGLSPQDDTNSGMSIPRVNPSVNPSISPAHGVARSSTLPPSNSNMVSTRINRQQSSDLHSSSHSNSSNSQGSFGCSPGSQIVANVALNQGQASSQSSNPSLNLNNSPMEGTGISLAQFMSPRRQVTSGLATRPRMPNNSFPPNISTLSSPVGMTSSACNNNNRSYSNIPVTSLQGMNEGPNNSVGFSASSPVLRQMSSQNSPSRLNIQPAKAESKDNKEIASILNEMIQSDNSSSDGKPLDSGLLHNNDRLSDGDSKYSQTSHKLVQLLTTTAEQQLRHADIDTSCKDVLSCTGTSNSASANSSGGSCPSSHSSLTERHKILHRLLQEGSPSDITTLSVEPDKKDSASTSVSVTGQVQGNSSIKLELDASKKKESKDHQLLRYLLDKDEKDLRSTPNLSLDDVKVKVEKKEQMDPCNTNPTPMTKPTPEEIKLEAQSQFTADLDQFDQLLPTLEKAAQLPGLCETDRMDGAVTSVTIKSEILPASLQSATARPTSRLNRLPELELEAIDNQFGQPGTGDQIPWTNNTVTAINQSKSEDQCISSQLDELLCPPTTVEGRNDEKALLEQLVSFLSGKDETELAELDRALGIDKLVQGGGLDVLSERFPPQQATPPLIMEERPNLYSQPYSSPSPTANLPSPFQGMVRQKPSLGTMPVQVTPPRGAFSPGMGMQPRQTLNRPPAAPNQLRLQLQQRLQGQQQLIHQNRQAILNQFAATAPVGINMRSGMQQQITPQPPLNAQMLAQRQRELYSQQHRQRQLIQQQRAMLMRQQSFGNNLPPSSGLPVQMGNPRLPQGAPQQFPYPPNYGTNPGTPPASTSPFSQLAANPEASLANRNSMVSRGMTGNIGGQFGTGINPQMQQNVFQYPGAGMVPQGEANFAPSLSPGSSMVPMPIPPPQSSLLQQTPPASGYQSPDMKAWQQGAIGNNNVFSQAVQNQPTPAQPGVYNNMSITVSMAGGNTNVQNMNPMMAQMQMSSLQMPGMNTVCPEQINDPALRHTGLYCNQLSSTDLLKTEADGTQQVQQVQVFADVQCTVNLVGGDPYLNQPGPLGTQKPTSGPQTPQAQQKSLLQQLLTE
Sequence of Peroxisome proliferator-activated receptor gamma/Nuclear receptor coactivator 3 (P37231 whole entry): as the sequence (P37231 whole entry) above
Sequence of Peroxisome proliferator-activated receptor gamma/Nuclear receptor coactivator 3 (Q9Y6Q9 whole entry, further chain): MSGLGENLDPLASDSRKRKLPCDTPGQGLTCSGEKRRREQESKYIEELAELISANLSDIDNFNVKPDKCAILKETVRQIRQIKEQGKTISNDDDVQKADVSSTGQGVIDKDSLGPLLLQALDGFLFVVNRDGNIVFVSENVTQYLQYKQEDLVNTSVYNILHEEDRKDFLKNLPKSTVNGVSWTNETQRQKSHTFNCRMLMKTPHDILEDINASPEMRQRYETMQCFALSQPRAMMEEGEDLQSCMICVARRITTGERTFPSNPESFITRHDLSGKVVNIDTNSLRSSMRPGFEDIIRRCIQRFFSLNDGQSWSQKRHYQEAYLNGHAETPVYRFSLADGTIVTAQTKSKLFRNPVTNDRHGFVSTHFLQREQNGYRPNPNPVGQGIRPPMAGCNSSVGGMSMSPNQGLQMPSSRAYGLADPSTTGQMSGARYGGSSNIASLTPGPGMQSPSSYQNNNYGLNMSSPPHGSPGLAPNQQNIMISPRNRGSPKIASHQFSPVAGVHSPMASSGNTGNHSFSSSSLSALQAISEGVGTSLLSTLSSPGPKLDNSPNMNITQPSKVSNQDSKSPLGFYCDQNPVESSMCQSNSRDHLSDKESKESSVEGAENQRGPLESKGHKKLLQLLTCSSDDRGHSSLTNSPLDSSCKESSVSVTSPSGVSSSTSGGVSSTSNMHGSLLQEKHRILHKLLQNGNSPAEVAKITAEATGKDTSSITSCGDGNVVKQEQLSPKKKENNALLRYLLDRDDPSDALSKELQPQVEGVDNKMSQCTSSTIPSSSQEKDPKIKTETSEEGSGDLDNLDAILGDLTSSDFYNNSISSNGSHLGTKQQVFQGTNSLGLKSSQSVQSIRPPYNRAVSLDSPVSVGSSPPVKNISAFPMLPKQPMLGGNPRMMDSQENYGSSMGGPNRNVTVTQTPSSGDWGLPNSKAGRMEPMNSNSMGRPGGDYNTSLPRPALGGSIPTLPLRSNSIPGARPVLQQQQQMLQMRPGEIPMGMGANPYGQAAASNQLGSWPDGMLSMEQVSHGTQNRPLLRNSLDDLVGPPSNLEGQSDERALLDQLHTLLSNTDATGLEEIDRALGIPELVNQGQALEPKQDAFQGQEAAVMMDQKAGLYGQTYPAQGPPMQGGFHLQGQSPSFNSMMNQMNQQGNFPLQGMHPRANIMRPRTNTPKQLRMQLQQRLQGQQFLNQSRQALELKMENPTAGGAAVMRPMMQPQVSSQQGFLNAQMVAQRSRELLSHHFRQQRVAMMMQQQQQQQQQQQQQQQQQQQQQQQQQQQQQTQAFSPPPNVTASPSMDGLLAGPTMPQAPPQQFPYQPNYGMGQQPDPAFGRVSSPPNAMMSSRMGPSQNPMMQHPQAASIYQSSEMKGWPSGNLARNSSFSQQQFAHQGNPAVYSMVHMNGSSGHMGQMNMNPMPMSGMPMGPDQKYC
Sequence of Cytochrome P450 3A4 (P08684 whole entry): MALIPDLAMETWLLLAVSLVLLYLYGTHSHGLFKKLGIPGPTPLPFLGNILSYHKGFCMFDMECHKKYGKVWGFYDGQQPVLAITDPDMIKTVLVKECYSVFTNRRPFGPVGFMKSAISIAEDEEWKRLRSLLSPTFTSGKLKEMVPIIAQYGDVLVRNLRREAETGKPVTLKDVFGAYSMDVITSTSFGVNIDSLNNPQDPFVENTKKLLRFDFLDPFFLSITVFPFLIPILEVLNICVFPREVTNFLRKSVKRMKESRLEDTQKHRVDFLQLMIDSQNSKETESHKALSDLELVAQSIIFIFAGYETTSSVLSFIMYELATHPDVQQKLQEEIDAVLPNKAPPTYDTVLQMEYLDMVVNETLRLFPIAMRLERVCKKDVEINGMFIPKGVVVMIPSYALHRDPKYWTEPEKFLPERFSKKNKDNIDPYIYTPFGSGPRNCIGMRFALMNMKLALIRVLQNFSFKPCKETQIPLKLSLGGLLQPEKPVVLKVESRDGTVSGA

COc1ccc2c(=O)c(-c3ccccc3C)c(C)oc2c1
AC50 (Cytochrome P450 1A2): 31.6 µM (inconclusive)
AC50 (Cytochrome P450 3A4): inconclusive
AC50 (Cytochrome P450 2D6): inconclusive

COc1ccc(CCNc2cc(C)nc3c(-c4ccc(Cl)cc4)cnn23)cc1OC
AC50 [1]: 24.1 µM (active)
AC50 [2]: 4.77 µM (active)

CCn1c(SCC(=O)N2CCN(c3ccc(F)cc3)CC2)nc2ccccc2c1=O
AC50 [1]: 58.9 µM (active)
AC50 [2]: 20.1 µM (active)

Cc1ccc(C(=O)c2cnc3cc4c(cc3c2S(=O)(=O)c2ccccc2)OCCO4)cc1
IC50 (HEK293 [3]): 12.9 µM (inactive)
IC50 (HEK293 [4]): 14.7 µM (active)
EC50 [5]: 6.76 µM (active)
IC50 (HEK293 [6]): > 20 µM (inactive)
EC50 [7]: 9.9 µM (active)
EC50 (HEK293 [8]): > 20 µM (inactive)
EC50 (H4): 7.93 µM (active)

NC(=O)CSc1oc(-c2cccs2)nc1S(=O)(=O)c1ccccc1
EC50 [9]: 10.9 µM (inactive)
EC50 [10]: > 79.4 µM (not active)
EC50 [11]: 10.8 µM (not active)

O=[As](O)(O)c1ccc(NCc2ccccc2)cc1
AC50 (Cytochrome P450 2D6): inconclusive

O=C(Nc1cccnc1)c1sc(Nc2ccccc2F)nc1-c1ccccc1
EC50 [9]: 6.48 µM (active)
EC50 [10]: 28.3 µM (not active)
EC50 [11]: 6.83 µM (active)

Cc1ccc(NS(=O)(=O)c2ccc(-c3cnc(C4CC4)o3)cc2)c(C)c1
EC50 [12]: 4.97 µM (inconclusive)
EC50 [13]: 3.3 µM (active)
EC50 (BJ [14]): 0.985 µM (active)
IC50 [15]: 51.2 µM (inactive)
AC50 [1]: 5.23 µM (inconclusive)
EC50 (BJ [16]): 1.2 µM (active)
EC50 [17]: 0.502 µM (active)
EC50 [18]: 18.9 µM (inconclusive)
EC50 (BJ [19]): 0.847 µM (inconclusive)
AC50 [2]: < 0.16 µM (active)

Reference: ChEMBL document CHEMBL1201862, “PubChem BioAssay data set” (2004)
